Series [1] has as its system human three-dimensional culture epidermal model (LabCyte EPI-MODEL). The experiment in a line: Suppression by cholesterol of skin irritation mediator production induced by asenapine and LADA in a human epidermal cell (Experiment 6). Type of series: cell-based. As for the experimental part: (§1) A human three-dimensional epidermal culture model obtained by multilayer-culturing a human normal epidermal cell (LabCyte EPI-MODEL, manufactured by Japan Tissue Engineering Co., Ltd.) was used. LabCyte is a cultured skin cultured in a transwell. For the experiment, LabCyte was used with the transwell.
(§2) The experiment was conducted as below. First, LabCyte was put into a 24-well assay plate. Then, 1 ml of assay medium (Japan Tissue Engineering Co., Ltd.) was added so that it was brought into contact with a bottom surface of the cultured skin in each well of the 24-well assay plate, and was pre-cultured in an incubator with 5% of carbon dioxide concentration at 37° C. for 1 hour.
(§3) The test solutions of each group were added to the cells, the culture solutions incubated for 48 hours were collected, and a production amount of each skin irritation mediator was measured. The skin irritation mediator was measured by using a commercially available ELISA kit (manufactured by R&D Systems, Inc.). A relative production amount of the skin irritation mediator in each test substance was calculated as below, when the production amount of the skin irritation mediator in the PMA Only Group was set to 100.
Cholesterol was used as a test substance. Asenapine and lauric acid diethanolamide (LADA) were used as the cutaneous irritants.
Tests were conducted by the following group composition. • Solvent Group: A group including only vehicle. Olive oil was used as a vehicle. • Skin Irritant Only Group: A group with addition of only cutaneous irritant dispersed in a vehicle, as a test solution. The concentration of asenapine maleate to be added was 0.6% (asenapine group), and that of LADA was 0.03% (LADA group). • Skin Irritant Plus Cholesterol Group: A group with addition of the drug and 1% by mass of cholesterol which were dispersed in a vehicle, as a test solution.
The experiment was conducted while other conditions were set in the same manner as Experiment 1.

Series [2] shares this test system. The experiment in a line: Production of skin irritation mediators induced by PMA in human three-dimensional epidermal culture model (Experiment 1). The note with it: for activity at 0.01 % / activity at 1 %: Homo sapiens, 48 hours; for activity at 0.01 %: test substance 0.01 mass % with PMA in olive oil; for Effect on skin irritation mediator production by PMA (in words): summary of Table 1; for activity at 1 %: test substance 1 mass % with PMA in olive oil. Type of series: cell-based.
Description: Changes in production amounts of skin irritation mediators by test substances were examined when cutaneous irritants were caused to act on a human three-dimensional culture epidermal model.
as §1
As test substances, there were used cholesterol (manufactured by Wako Pure Chemical Industries, Ltd.), β-sitosterol (manufactured by TAMA BIOCHEMICAL CO., LTD.), α-spinasterol (manufactured by ChromaDex, Inc.), ergosterol (manufactured by Wako Pure Chemical Industries, Ltd.), campesterol (manufactured by TAMA BIOCHEMICAL CO., LTD.), glycyrrhizin (manufactured by Wako Pure Chemical Industries, Ltd.), glycyrrhetinic acid (manufactured by Wako Pure Chemical Industries, Ltd.), ginsenoside (manufactured by Wako Pure Chemical Industries, Ltd.), squalene (manufactured by Wako Pure Chemical Industries, Ltd.), squalane (manufactured by Tokyo Chemical Industry Co., Ltd.) and lanosterol (manufactured by ChromaDex, Inc.), which are candidates of a skin irritation suppressant.
As skin irritants, Phorbol 12-Myristate 13-Acetate (PMA, manufactured by Wako Pure Chemical Industries, Ltd.) was used. In addition, as vehicle, olive oil (manufactured by Wako Pure Chemical Industries, Ltd.) was used.
Experiments were conducted by the following group composition. • PMA Only Group: A group with addition of only 0.00001 mol of PMA dispersed in a vehicle, as a test solution. • Test Substance Group: A group with addition of 0.00001 mol of PMA and the test substance which were dispersed in a vehicle, as a test solution.
as §2
Next, a cell survival rate was measured by the MTT method after causing the test solutions of each group to act. Specifically, 50 μL of the test solution of each group was added to the surface of the LabCyte after preculture, was cultured in the incubator with 5% of carbon dioxide concentration at 37° C. for 48 hours, then was transferred to the assay medium comprising 0.5 mg/ml of MTT reagent, and was cultured in the incubator with 5% of carbon oxide level at 37° C. for 3 hours. Then, LabCyte was immersed in 0.3 ml of an isopropanol solution, and the produced blue-purple formazan was extracted for 2 hours. After extraction, an absorbance at 570 nm was measured by a 96 microplate reader. The cell survival rate was calculated as below.
Cell survival rate (%)=(absorbance of Test Substance Group)/(absorbance of PMA Only Group)×100
Subsequently, a production amount of the skin irritation mediator at a test substance concentration with 80% or more of cell survival rate was measured. As skin irritation mediators, PGE2, IL-1α, IL-6, IL-8 were measured.
as §3
Relative production amount=(production amount of the mediator in Test Substance Group)/(production amount of the mediator in PMA Only Group)×100

Series [3] concerns croton oil-induced mouse ear swelling. The experiment in a line: Suppression of croton oil-induced mouse ear swelling reaction (Experiment 3). It is filed as in vivo. The note with it: for Inhibition Ratio Of Ear Swelling: ddY female mouse, 1% by mass of test substance in 2% croton oil solution, 25 μL on ears, auricular thickness 6 hours after; for Effect on croton oil-induced mouse ear swelling reaction (in words): summary of Table 3. From the text: <Suppression of Croton Oil-Induced Mouse Ear Swelling Reaction by the Test Substances>
Suppression of mouse ear swelling was examined through the use of croton oil (Wako Pure Chemical Industries, Ltd.) as a swelling inducer. A 7-week-old ddY female mouse (SPF) was subjected to an experiment. As test substances, cholesterol, glycyrrhizin, glycyrrhetinic acid, squalene, ergosterol, squalane and lanosterol were used. As a vehicle, acetone (Wako Pure Chemical Industries, Ltd.) was used.
Experiments were conducted by the following group composition. • Positive Control Group: A group which received only the vehicle as a primary test solution, and one hour after, received a 2% croton oil solution as a secondary test solution. • Test Substance Group: A group in which only the vehicle was administered as a primary test solution, and one hour after, a 2% croton oil solution including 1% by mass of test substance was administered as a secondary test solution.
An inhibition ratio of ear swelling was calculated as below. In this test, a […] inflammation model is used to examine immediate swelling reactions. In accordance with the group composition, 25 μL of the primary test solution was uniformly coated on back sides of both ears in an etherize mouse, and one hour after, 25 μL of the secondary test solution was uniformly coated in accordance with the group composition. Prior to coating of the secondary test solution, a thickness of auricle was measured by DIAL […] GAUGE (OZAKI MFG CO., LTD.). Furthermore, the secondary test solution was administered, and 6 hours after, the auricular thickness was measured in the same way as mentioned above, and an increased amount of the auricular thickness was set by deducting the thickness measured prior to administration of the secondary test solution. The inhibition ratio of ear swelling was calculated as below.
Inhibition ratio of ear swelling (%)=(increased amount of auricular thickness in Test Substance Group−increased amount of auricular thickness in Negative Control Group)/(increased amount of auricular thickness in Positive Control Group−increased amount of auricular thickness in Negative Control Group)×100

For series [4], the system named is shaved back of the rabbit. The note with it: in vivo.
Description: <Examination of Reduction in Skin Irritation in a Rabbit by Cholesterol, −1>
A 19-week-old JW female rabbit was subjected to an experiment.
Subsequently, the transdermal preparation of each group was applied to a shaved back of the rabbit a single time for 24 hours. Erythema and swelling on the applied site were evaluated 1, 24 and 48 hours after peel-off of the transdermal preparation in accordance with the judgment standard of Draize et al. and an average value of the skin primary irritation index (PII) was calculated.
In series [5] the test system is human three-dimensional culture epidermal model (LabCyte EPI-MODEL). The experiment in a line: Suppression by cholesterol of skin irritation mediator production induced by drugs in a human epidermal cell (Experiment 2). Type of series: cell-based. The note with it: 1% by mass of cholesterol; summary of Table 2. The protocol: as §1, §2, §3
Cholesterol was used as a test substance. The drugs shown in Table 2 were used as the cutaneous irritants.
Tests were conducted by the following group composition. • Drug Only Group: A group with addition of only the drug dispersed in a vehicle, as a test solution. Concentrations of the drugs are shown in Table 2. • Drug Plus Cholesterol Group: A group with addition of the drug and 1% by mass of cholesterol which were dispersed in a vehicle, as a test solution.
The experiment was conducted while other conditions were set in the same manner as in Experiment 1.

Setting [6] is: LADA 0.03% in olive oil, without or with 1% by mass of cholesterol.
Setting [7] is: asenapine maleate 0.6% in olive oil, without or with 1% by mass of cholesterol.
Where [8] appears, read: read-out: Relative Production Amount of Skin Irritation Mediator when Production Amount in PMA Only Group is Set to 100: IL-1α.
Where [9] appears, read: read-out: Relative Production Amount of Skin Irritation Mediator when Production Amount in PMA Only Group is Set to 100: IL-6.
Where [10] appears, read: read-out: Relative Production Amount of Skin Irritation Mediator when Production Amount in PMA Only Group is Set to 100: IL-8.
Where [11] appears, read: read-out: Relative Production Amount of Skin Irritation Mediator when Production Amount in PMA Only Group is Set to 100: PGE2.

Counter-ions that a name gives are not always drawn. Like-named read-outs stand apart in the source and are kept apart here.

Regarding `CCCCCCCCCCCC(=O)N(CCO)CCO` [LADA, lauric acid diethanolamide], in series [1] (setting [6]), the “Production Amount of Skin Irritation Mediator: IL-1α” value stood at 29.85 pg/mL, the “Production Amount of Skin Irritation Mediator: IL-6” value amounted to 0.00 pg/mL, the “Production Amount of Skin Irritation Mediator: IL-8” value worked out at 160.29 pg/mL and the “Production Amount of Skin Irritation Mediator: PGE2” value came to 30.64 pg/mL. In series [1] (setting [6]), the “Production Amount of Skin Irritation Mediator: TNFα” value amounted to 0.00 pg/mL.

Turning to `CN1CC2c3ccccc3Oc3ccc(Cl)cc3C2C1` (stereo not drawn) [Asenapine, asenapine maleate], in series [1] (setting [7]), the “Production Amount of Skin Irritation Mediator: IL-1A” value came to 17.24 pg/mL, the “Production Amount of Skin Irritation Mediator: IL-6” value came to 0.00 pg/mL, the “Production Amount of Skin Irritation Mediator: IL-8” value was 174.90 pg/mL and the “Production Amount of Skin Irritation Mediator: PGE2” value is 125.85 pg/mL. Besides, the “Production Amount of Skin Irritation Mediator: TNFA” value in series [1] (setting [7]) came out at 0.00 pg/mL.

`CC1(C)[C@@H](O)CC[C@]2(C)[C@H]3C(=O)C=C4[C@@H]5C[C@@](C)(C(=O)O)CC[C@]5(C)CC[C@@]4(C)[C@]3(C)CC[C@@H]12` [Glycyrrhetinic Acid, glycyrrhetinic acid]: the activity at 0.01 % in series [2] (setting [8]) came out at 77%; in series [2] (setting [9]), 46%; in series [2] (setting [10]), 81%; in series [2] (setting [11]), 48%. Also, the “Effect on skin irritation mediator production by PMA (in words)” value in series [2] is reported as “exhibited effects of suppressing the skin irritation mediator production by PMA”. Further, the “Inhibition Ratio Of Ear Swelling” value in series [3] was 53.4%. The “Effect on croton oil-induced mouse ear swelling reaction (in words)” value in series [3] was “suppress croton oil-induced mouse ear swelling reaction”.

In the case of `CC(C)CCC[C@@H](C)[C@H]1CC[C@H]2[C@@H]3CC=C4C[C@@H](O)CC[C@]4(C)[C@H]3CC[C@]12C` [Cholesterol, cholesterol], the activity at 1 % in series [2] (setting [8]) amounted to 50%; in series [2] (setting [9]), 0%; in series [2] (setting [10]) it was 65%; in series [2] (setting [11]) it was 17%. Besides, the “Effect on skin irritation mediator production by PMA (in words)” value in series [2] is “exhibited effects of suppressing the skin irritation mediator production by PMA”. The “Skin primary irritation index (PII), average value” in series [4] is reported as “reduces skin irritation due to the drug”. For the same compound, the “Effect of cholesterol on drug-induced production of the skin irritation mediator (in words)” value in series [5] is listed as “exhibited effects of suppressing of production of the skin irritation mediator on a wide range of drugs”. In series [3], the “Inhibition Ratio Of Ear Swelling” value is on record as 70.6%. In series [3], the “Effect on croton oil-induced mouse ear swelling reaction (in words)” value is “suppress croton oil-induced mouse ear swelling reaction”. Besides, the “Effect of cholesterol on skin irritation mediator production due to asenapine and LADA (in words)” value in series [1] (1% by mass of cholesterol, summary of Tables 5 and 6) was “exhibited effects of suppressing the skin irritation mediator production on skin irritation due to asenapine and LADA”.

These data come from patent publication US20130053357A1, “SKIN IRRITATION SUPPRESSANT AND TRANSDERMAL PREPARATION” (HISAMITSU PHARMACEUTICAL CO., INC., priority 2010, published 2013).
